Patent publication US5698565A, “Use of phenoxy-pyridine derivatives” (Hoffmann-La Roche Inc., priority 1995, dated 1997)

Target: T1, dopamine-D4 receptor (Homo sapiens, UniProt P21917)
T1 construct: expressed in transfected cells; host or cells: CHO (Chinese Hamster Ovary) cells, D4-CHO; crude membranes
Experiment: [3H]-spiperone binding at the D4 receptor, membranes of D4-CHO cells
Settings: crude membranes from D4-CHO cells, 200 pM [3H]-spiperone, room temperature, 90 minutes
Description: Compounds of formula I were characterized by their binding behavior at the D4 receptor.
CHO cells (Chinese Hamster Ovary) were used in the test. Crude membranes were isolated by ultracentrifugation from D4 -CHO and D2 -CHO cells and were stored at -80° C. After thawing and homogenizing in a buffer solution (50 mM Tris, 1 mM EDTA, 5 mM KCl, 1.5 mM CaCl2, 4 mM MgCl2, pH 7.4) they were incubated at room temperature for 90 minutes with 200 pM [3H]-spiperone and an increasing concentration (1×10^-11 M to 1×10^-4 M) of test compound. A non-specific binding was established by incubating in the presence of 1×10^-5 M (+)-butaclamol. The unbound radioligand was removed by filtration through a GF/C glass filter and the bound radioactivity was determined by scintillation in a Packard TopCount.
The calculation of the value was effected with ligand.

T1 sequence (P21917 whole entry): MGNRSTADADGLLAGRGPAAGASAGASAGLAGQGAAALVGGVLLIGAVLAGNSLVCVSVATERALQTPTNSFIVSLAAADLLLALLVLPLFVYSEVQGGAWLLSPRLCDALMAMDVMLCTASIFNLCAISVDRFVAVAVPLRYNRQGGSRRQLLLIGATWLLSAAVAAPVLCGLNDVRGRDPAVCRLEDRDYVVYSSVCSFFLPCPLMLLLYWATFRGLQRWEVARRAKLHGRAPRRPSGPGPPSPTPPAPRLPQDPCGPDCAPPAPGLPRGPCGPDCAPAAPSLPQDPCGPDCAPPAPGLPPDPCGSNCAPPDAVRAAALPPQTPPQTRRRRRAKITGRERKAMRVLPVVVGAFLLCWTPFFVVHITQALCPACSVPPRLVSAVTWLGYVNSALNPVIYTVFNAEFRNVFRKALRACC

Row | Structure (SMILES) | Ki [nM]
1 | Cc1cccc(OCC(O)CN2CC=C(c3ccccc3)CC2)c1 (centres unmarked) [Compound 1, 1-(4-Phenyl-3,6-dihydro-2H-pyridin-1-yl)-3-m-tolyloxy-5-propan-2-ol] | < 100
2 | NC(=O)c1ccccc1OCC(O)CN1CC=C(c2ccc(F)cc2)CC1 (centres unmarked) [Compound 12, 2-[3-[4-(4-Fluoro-phenyl)-3,6-dihydro-2H-pyridinol-yl]-2-hydroxy-propoxy]-benzamide] | < 100
3 | OC(COc1cccc2ccccc12)CN1CC=C(c2ccccc2)CC1 (centres unmarked) [Compound 10, 1-(Naphthalen-1-yloxy)-3-(4-phenyl-3,6-dihydro-2H-pyridin-1-yl)-propan-2-ol] | < 100
4 | OCc1ccccc1OCC(O)CN1CC=C(c2ccccc2)CC1 (centres unmarked) [Compound 4, 1-(2-Hydroxymethyl-phenoxy)-3-(4-phenyl-3,6-dihydro-2H-pyridin-1-yl)-propan-2-ol] | < 100
5 | OC(COc1cccc(C(F)(F)F)c1)CN1CC=C(c2ccc(F)cc2)CC1 (centres unmarked) [Compound 11, 1-[4-(4-Fluoro-phenyl)-3,6-dihydro-2H-pyridin-1-yl)-3-(3-trifluoromethyl-phenoxy)-propan-2-ol] | < 100
6 | CC(=O)c1ccccc1OCC(O)CN1CC=C(c2ccccc2)CC1 (centres unmarked) [Compound 7, 1-[2-[2-Hydroxy-3-(4-phenyl-3,6-dihydro-2H-pyridin-1-yl)-propoxy]-phenyl]-ethanone] | < 100
7 | Cc1ccc(OCC(O)CN2CC=C(c3ccccc3)CC2)cc1C (centres unmarked) [Compound 8, 1-(3,4-Dimethyl-phenoxy)-3-(4-phenyl-3,6-dihydro-2H-pyridin-1-yl)-propan-2-ol] | < 100
8 | CC(=O)Nc1ccccc1OCC(O)CN1CC=C(c2ccc(Cl)cc2)CC1 (centres unmarked) [Compound 14] | < 100
9 | OC(COc1cccc(C(F)(F)F)c1)CN1CC=C(c2ccccc2)CC1 (centres unmarked) [Compound 3, 1-(4-Phenyl-3,6-dihydro-2H-pyridin-1-yl)-3-(3-trifluoro-methylphenoxy)-propan-2-ol] | < 100
10 | CC(=O)Nc1cc(Cl)ccc1OCC(O)CN1CC=C(c2ccccc2)CC1 (centres unmarked) [Compound 9, N-[5-Chloro-2-[2-hydroxy-3-(4-phenyl-3,6-dihydro-2H-pyridin-1-yl)-propoxy]-phenyl]acetamide] | < 100
11 | Cc1ccccc1OCC(O)CN1CC=C(c2ccccc2)CC1 (centres unmarked) [Compound 2, 1-(4-Phenyl-3,6-dihydro-2H-pyridin-1-yl)-3-o-tolyloxy-propan-2-ol] | < 100
12 | COc1ccccc1OCC(O)CN1CC=C(c2ccccc2)CC1 (centres unmarked) [Compound 5, 1-(2-Methoxy-phenoxy)-3-(4-phenyl-3,6-dihydro-2H-pyridin-1-yl)-propan-2-ol] | < 100
13 | CC(=O)Nc1ccccc1OCC(O)CN1CC=C(c2ccccc2)CC1 (centres unmarked) [Compound 6, N-[2-[2-Hydroxy-3-(4-phenyl-3,6-dihydro-2H-pyridin-1-yl)-propoxy]-phenyl]-acetamide] | < 100
14 | NC(=O)Nc1ccccc1OCC(O)CN1CC=C(c2ccc(F)cc2)CC1 (centres unmarked) [Compound 13, [2-[3-[4-(4-Fluoro-phenyl)-3,6-dihydro-2H-pyridin-1-yl]-2-hydroxy-propoxy]-phenyl]-urea] | < 100
